# In PMC12677653, “Inhibition of Tumor Lipogenesis and Growth by Peptide‐Based Targeting of SREBP Activation” (Advanced Science, 2025):
# Experiments:
# [1] = tested on: lipid accumulation in tumor tissues; experiment: Oil Red O staining of tumor tissues; format: in vivo, BALB/c athymic nude mice; conditions: cryosections of Huh7 tumors, n = 4; peptide given as LNP 10 mg/kg iv; lenvatinib mesylate 2 mg/kg oral
# Experimental: Representative micrographs are shown (scale bar: 20 µm). b,c) Cryosections of mouse tumor tissues were prepared for histological analysis. (b) Lipid accumulation was assessed by Oil Red O staining. Representative micrographs are shown (scale bar: 20 µm). (c) Apoptotic cells were detected by TUNEL assay. Representative micrographs are shown (scale bar: 20 µm). d,e) Quantitative analysis of (d) apoptotic areas (TUNEL‐positive regions) and (e) lipid droplet counts (Oil Red O‐positive particles) was performed. Data represent the mean ± SD (n = 4). Statistical significance was determined by one‐way analysis of variance (ANOVA). ** p < 0.01, **** p < 0.0001, ns, no significance.
# Cryosections 6–8 µm in thickness were air‐dried and fixed with formaldehyde for 5–10 min. Then, the slides were placed in absolute propylene glycol for 2–5 min and stained with 0.5% Oil red O dye. After staining, the slides were rinsed, counterstained with Mayer's hematoxylin for 1 min, and mounted in glycerin.
# [2] = target: T1, binding of PCK1 to Insig1 (Homo sapiens, UniProt P35558); experiment: Immunoprecipitation of IGF1-induced PCK1-Insig1 binding, Huh7; format: cell-based; set-up: expressed in transfected cells; host or cells: Huh7; conditions: Flag-PCK1-expressing Huh7 cells, peptide 15 µM 1 h before IGF1 100 ng/mL
# T1 sequence (P35558 1-622): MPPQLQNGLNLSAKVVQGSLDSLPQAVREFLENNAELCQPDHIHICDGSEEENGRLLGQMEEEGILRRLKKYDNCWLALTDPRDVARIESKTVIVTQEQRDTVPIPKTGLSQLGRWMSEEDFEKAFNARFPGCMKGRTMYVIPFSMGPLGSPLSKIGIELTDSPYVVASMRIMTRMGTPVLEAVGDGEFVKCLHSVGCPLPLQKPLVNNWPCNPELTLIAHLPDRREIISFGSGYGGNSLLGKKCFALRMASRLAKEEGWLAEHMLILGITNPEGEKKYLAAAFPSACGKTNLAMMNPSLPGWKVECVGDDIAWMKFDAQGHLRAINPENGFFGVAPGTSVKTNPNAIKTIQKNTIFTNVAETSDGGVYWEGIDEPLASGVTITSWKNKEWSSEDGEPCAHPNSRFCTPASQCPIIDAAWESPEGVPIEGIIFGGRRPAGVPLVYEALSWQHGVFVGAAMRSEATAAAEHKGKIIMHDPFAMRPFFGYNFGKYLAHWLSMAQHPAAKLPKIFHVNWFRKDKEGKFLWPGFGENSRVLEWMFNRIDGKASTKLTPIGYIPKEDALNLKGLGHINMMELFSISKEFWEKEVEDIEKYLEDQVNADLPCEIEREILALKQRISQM
# Experimental: Figure 1 The Insig1/2 loop 1 peptide binds to S90‐phosphorylated PCK1 and blocks PCK1‐mediated SREBP activation and tumor cell proliferation. Immunoblotting analyses were performed using the indicated antibodies; representative results from three independent experiments are shown (IP, immunoprecipitation; WB, western blot). a) Huh7 cells expressing various Insig1 (top) or Insig2 (bottom) truncation mutants were treated with or without IGF1 (100 ng mL^−1) for 1 h. b,c) Biolayer interferometry assays (Sartorius Octet) were employed to measure the binding affinity of Insig1/2 loop 1 peptide to GST‐PCK1 or GST‐PCK1 pS90 proteins. […] Statistical significance was determined by one‐way analysis of variance (ANOVA). g) Following pretreatment with Insig1/2 loop 1 peptide (15 µM) and IGF1 stimulation (100 ng mL^−1, 8 h), Huh7 cells were subjected to immunofluorescence analysis (scale bar: 10 µm). h) Quantitative PCR analysis of SREBP1 target gene GPAM in Huh7 cells pretreated with Insig1/2 loop 1 peptide (15 µM) and stimulated with IGF1 (100 ng mL^−1) for 10 h. […] Statistical significance was determined by one‐way analysis of variance (ANOVA). i) Quantitative PCR analysis of SREBP1 target gene FASN in Huh7 cells pretreated with Insig1/2 loop 1 peptide (15 µM) and stimulated with IGF1 (100 ng mL^−1) for 10 h. […]
sequence,measurement,setting,value
RKKRRQRRRLYPCIDSHLGEPHKFKRE [Insig1/2 loop 1 peptide],lipid accumulation in tumor tissues (Oil Red O),[1],reduced lipid accumulation in tumor tissues
same,IGF1-induced binding of PCK1 to Insig1,[2],markedly inhibited
